Source: US9447100B2, “Substituted pyrazolo[1,5-A] pyrimidines as calcium receptor modulating agents” (Takeda Pharmaceutical Company Limited, priority 2002, dated 2016)
Counter-ions that a name gives are not always drawn.

Row | melting point [°C] | Compound
1 | 113 to 114 | CCCCC(CCCC)(NC(=O)c1cnn2c1NC(c1ccccc1)CC2(C)C)c1ccc(C(F)(F)F)cc1 (stereo not shown) [Example 411, N-(1-butyl-1-(4-(trifluoromethyl)phenyl)pentyl)-7,7-dimethyl-5-phenyl-4,5,6,7-tetrahydropyrazolo[1,5-a]pyrimidine-3-carboxamide]
2 | 141 to 142 | CCOc1ccc(C(CC)(CC)NC(=O)c2cnn3c2NC(c2ccccc2)CC3(C)C)cc1 (stereo not shown) [Example 722, N-(1-(4-ethoxyphenyl)-1-ethylpropyl)-7,7-dimethyl-5-phenyl-4,5,6,7-tetrahydropyrazolo[1,5-a]pyrimidine-3-carboxamide]
3 | 133 to 134 | CCCCOC(=O)CCCOc1ccc(C(CC)(CC)NC(=O)c2cnn3c2NC(c2ccccc2)CC3(C)C)cc1 (stereo not shown) [Example 818, butyl 4-(4-(1-(((7,7-dimethyl-5-phenyl-4,5,6,7-tetrahydropyrazolo[1,5-a]pyrimidin-3-yl)carbonyl)amino)-1-ethyl-propyl)phenoxy)butanoate]
4 | 220 to 222 | CCC(CC)(NC(=O)c1cnn2c1NC(c1ccccc1)CC2(C)C)c1ccc(Cl)cc1Cl (stereo not shown) [Example 680, N-(1-(2,4-dichlorophenyl)-1-ethylpropyl)-7,7-dimethyl-5-phenyl-4,5,6,7-tetrahydropyrazolo[1,5-a]pyrimidine-3-carboxamide]
5 | 150 to 151 | CCC(CC)(NC(=O)c1cnn2c1NC(c1ccccc1)CC2(C)C)c1ccc(CCC(=O)OC(C)C)cc1 (stereo not shown) (as salt: HCl) [Example 816, isopropyl 3-(4-(1-(((7,7-dimethyl-5-phenyl-4,5,6,7-tetrahydropyrazolo[1,5-a]pyrimidin-3-yl)carbonyl)amino)-1-ethyl-propyl)phenyl)propanoate]
6 | 172 to 173 | CCC1(NC(=O)c2cnn3c2NC(c2ccccc2)CC3(C)C)CC[S+]([O-])CC1 (stereo not shown) [Example 623, N-(4-ethyl-1-oxidotetrahydro-2H-thiopyran-4-yl)-7,7-dimethyl-5-phenyl-4,5,6,7-tetrahydropyrazolo[1,5-a]pyrimidine-3-carboxamide]
7 | 167 to 168 | CCC(CC)(NC(=O)c1cnn2c1NC(c1ccccc1)CC2C(F)(F)F)c1cccc(Br)c1 (stereo not shown) [Example 398, N-(1-(3-bromophenyl)-1-ethylpropyl)-5-phenyl-7-(trifluoromethyl)-4,5,6,7-tetrahydropyrazolo[1,5-a]pyrimidine-3-carboxamide]
8 | 179 to 180 | CCC(CC)(NC(=O)c1c(C)nn2c1N[C@@H](c1ccccc1)CC2(C)C)c1ccc(I)cc1 (as salt: HCl) [Example 1073, (5R)-N-(1-ethyl-1-(4-iodophenyl)propyl)-2,7,7-trimethyl-5-phenyl-4,5,6,7-tetrahydropyrazolo[1,5-a]pyrimidine-3-carboxamide]
9 | 211 to 212 | COc1cccc(C2CC(C(F)(F)F)n3ncc(C(=O)NC45CC6CC(CC(C6)C4)C5)c3N2)c1 (stereo not shown) [Example 280, N-(1-adamantyl)-5-(3-methoxyphenyl)-7-(trifluoromethyl)-4,5,6,7-tetrahydropyrazolo[1,5-a]pyrimidine-3-carboxamide]
10 | 257 to 258 | CCC(CC)(NC(=O)c1cnn2c1NC(c1ccccc1)CC2(C)C)c1ccc(C(=O)O)cc1 (stereo not shown) [Example 734, 4-(1-(((7,7-dimethyl-5-phenyl-4,5,6,7-tetrahydropyrazolo[1,5-a]pyrimidin-3-yl)carbonyl)amino)-1-ethylpropyl)benzoic acid]
11 | 256 to 257 | O=C(NC12CC3CC(CC(C3)C1)C2)c1cnn2c1NC(c1ccccc1Cl)CC2C(F)(F)F (stereo not shown) [Example 281, N-(1-adamantyl)-5-(2-chlorophenyl)-7-(trifluoromethyl)-4,5,6,7-tetrahydropyrazolo[1,5-a]pyrimidine-3-carboxamide]
12 | 156 to 157 | O=C(O)c1cnn2c1NC(c1ccco1)CC2C(F)(F)F (stereo not shown) [Example 29, 5-(2-furyl)-7-(trifluoromethyl)-4,5,6,7-tetrahydropyrazolo[1,5-a]pyrimidine-3-carboxylic acid]
13 | 178 to 179 | COc1ccc(C2CC(C)(C)n3nc(C)c(C(=O)O)c3N2)cc1 (stereo not shown) [Example 950, 5-(4-methoxyphenyl)-2,7,7-trimethyl-4,5,6,7-tetrahydropyrazolo[1,5-a]pyrimidine-3-carboxylic acid]
14 | 152 to 155 | CCC(CC)(NC(=O)c1c(C)nn2c1NC(c1cccc(F)c1)CC2(C)C)c1ccc(C)cc1 (stereo not shown) (as salt: HCl) [Example 972, N-(1-ethyl-1-(4-methylphenyl)propyl)-5-(3-fluorophenyl)-2,7,7-trimethyl-4,5,6,7-tetrahydropyrazolo[1,5-a]pyrimidine-3-carboxamide]
15 | 150 to 151 | Cc1nn2c(c1C(=O)O)NC(c1ccccc1F)CC2(C)C (single isomer, unassigned; (+)) [Example 1024, (+)-5-(2-fluorophenyl)-2,7,7-trimethyl-4,5,6,7-tetrahydropyrazolo[1,5-a]pyrimidine-3-carboxylic acid]
16 | 139 to 140 | CCCCOC(=O)c1ccc(C(CC)(CC)NC(=O)c2cnn3c2NC(c2ccccc2)CC3(C)C)cc1 (stereo not shown) [Example 757, butyl 4-(1-(((7,7-dimethyl-5-phenyl-4,5,6,7-tetrahydropyrazolo[1,5-a]pyrimidin-3-yl)carbonyl)amino)-1-ethylpropyl)benzoate]
17 | 201 to 202 | CCC(C#N)NC(=O)c1cnn2c1N[C@H](c1ccccc1)C[C@@H]2C(F)(F)F (stereo in doubt) [Example 284, N-(1-cyanopropyl)-5-phenyl-7-(trifluoromethyl)-4,5,6,7-tetrahydropyrazolo[1,5-a]pyrimidine-3-carboxamide]
18 | 238 to 239 | COc1ccccc1C1CC(C(F)(F)F)n2ncc(C(=O)NC34CC5CC(CC(C5)C3)C4)c2N1 (stereo not shown) [Example 279, N-(1-adamantyl)-5-(2-methoxyphenyl)-7-(trifluoromethyl)-4,5,6,7-tetrahydropyrazolo[1,5-a]pyrimidine-3-carboxamide]
19 | 246 to 247 | O=C(NC12CC3CC(CC(C3)C1)C2)c1cnn2c1NC(c1cccc(Cl)c1)CC2C(F)(F)F (stereo not shown) [Example 282, N-(1-adamantyl)-5-(3-chlorophenyl)-7-(trifluoromethyl)-4,5,6,7-tetrahydropyrazolo[1,5-a]pyrimidine-3-carboxamide]
20 | 182 to 183 | CCC(CC)(NC(=O)c1c(C)nn2c1NC(c1ccccc1)CC2(C)C)c1ccc(F)cc1 (stereo not shown) [Example 761, N-(1-ethyl-1-(4-fluorophenyl)propyl)-2,7,7-trimethyl-5-phenyl-4,5,6,7-tetrahydropyrazolo[1,5-a]pyrimidine-3-carboxamide]
21 | 104 to 105 | CCC1(NC(=O)c2cnn3c2NC(c2ccccc2)CC3(C)C)CCOCC1 (stereo not shown) [Example 582, N-(4-ethyltetrahydro-2H-pyran-4-yl)-7,7-dimethyl-5-phenyl-4,5,6,7-tetrahydropyrazolo[1,5-a]pyrimidine-3-carboxamide]
22 | 116 to 117 | CNC(=O)c1cnn2c1NC(c1ccccc1)CC2(C)C (stereo not shown) [Example 768, N,7,7-trimethyl-5-phenyl-4,5,6,7-tetrahydropyrazolo[1,5-a]pyrimidine-3-carboxamide]
